# Active and inactive are the calls of the source. No rule for the calls is given here.
# Test system: CCRIS mutagenicity, Ames/micronucleus/aberration tests
# Test: CCRIS mutagenicity studies
# Source text: The CCRIS database contains chemical records with carcinogenicity, mutagenicity, tumor promotion, and tumor inhibition test results. It was developed by the National Cancer Institute (NCI). Data are derived from studies cited in primary journals, current awareness tools, NCI reports, and other sources. Test results have been reviewed by experts in carcinogenesis and mutagenesis.
# CCRIS provides historical information from the years 1985 - 2011. It is no longer updated.
# This is an archive assay for CCRIS mutagenicity studies.
# [1] = Test System: AMES SALMONELLA TYPHIMURIUM, Strain/Indicator: TA98, Metabolic Activation: NONE, Method: PREINCUBATION
# [2] = Test System: AMES SALMONELLA TYPHIMURIUM, Strain/Indicator: TA100, Metabolic Activation: NONE, Method: PREINCUBATION
# [3] = Test System: AMES SALMONELLA TYPHIMURIUM, Strain/Indicator: TA100, Metabolic Activation: NONE, Method: STANDARD PLATE
# [4] = Test System: AMES SALMONELLA TYPHIMURIUM, Strain/Indicator: TA98, Metabolic Activation: NONE, Method: STANDARD PLATE
# [5] = Test System: AMES SALMONELLA TYPHIMURIUM, Strain/Indicator: TA98, Metabolic Activation: RAT, LIVER, S-9, AROCLOR 1254, Method: STANDARD PLATE
# [6] = Test System: AMES SALMONELLA TYPHIMURIUM, Strain/Indicator: TA100, Metabolic Activation: RAT, LIVER, S-9, AROCLOR 1254, Method: STANDARD PLATE
structure (smiles),measurement,setting,value
C[N+](C)(C)Cc1ccccc1,mutagenic call,"Test System: AMES SALMONELLA TYPHIMURIUM, Strain/Indicator: TA97, Metabolic Activation: HAMSTER, LIVER, S-9, AROCLOR 1254 (10 OR 30%), Method: PREINCUBATION",inactive; negative
same,mutagenic call,"Test System: AMES SALMONELLA TYPHIMURIUM, Strain/Indicator: TA97, Metabolic Activation: NONE, Method: PREINCUBATION",inactive; negative
same,mutagenic call,"Test System: AMES SALMONELLA TYPHIMURIUM, Strain/Indicator: TA97, Metabolic Activation: RAT, LIVER, S-9, AROCLOR 1254 (10 OR 30%), Method: PREINCUBATION",inactive; negative
same,mutagenic call,"Test System: AMES SALMONELLA TYPHIMURIUM, Strain/Indicator: TA98, Metabolic Activation: HAMSTER, LIVER, S-9, AROCLOR 1254 (10 OR 30%), Method: PREINCUBATION",inactive; negative
same,mutagenic call,[1],inactive; negative
same,mutagenic call,"Test System: AMES SALMONELLA TYPHIMURIUM, Strain/Indicator: TA98, Metabolic Activation: RAT, LIVER, S-9, AROCLOR 1254 (10 OR 30%), Method: PREINCUBATION",inactive; negative
same,mutagenic call,"Test System: AMES SALMONELLA TYPHIMURIUM, Strain/Indicator: TA100, Metabolic Activation: HAMSTER, LIVER, S-9, AROCLOR 1254 (10 OR 30%), Method: PREINCUBATION",inactive; negative
same,mutagenic call,[2],inactive; negative
same,mutagenic call,"Test System: AMES SALMONELLA TYPHIMURIUM, Strain/Indicator: TA100, Metabolic Activation: RAT, LIVER, S-9, AROCLOR 1254 (10 OR 30%), Method: PREINCUBATION",inactive; negative
same,mutagenic call,"Test System: AMES SALMONELLA TYPHIMURIUM, Strain/Indicator: TA1535, Metabolic Activation: HAMSTER, LIVER, S-9, AROCLOR 1254 (10 OR 30%), Method: PREINCUBATION",inactive; negative
same,mutagenic call,"Test System: AMES SALMONELLA TYPHIMURIUM, Strain/Indicator: TA1535, Metabolic Activation: NONE, Method: PREINCUBATION",inactive; negative
same,mutagenic call,"Test System: AMES SALMONELLA TYPHIMURIUM, Strain/Indicator: TA1535, Metabolic Activation: RAT, LIVER, S-9, AROCLOR 1254 (10 OR 30%), Method: PREINCUBATION",inactive; negative
O=C1c2ccccc2C(=O)c2c1cc(O)c(C(=O)O)c2O,mutagenic call,[1],inactive; negative
same,mutagenic call,"Test System: AMES SALMONELLA TYPHIMURIUM, Strain/Indicator: TA98, Metabolic Activation: RAT, LIVER, S-9, PCB, Method: PREINCUBATION",inactive; negative
same,mutagenic call,[2],inactive; negative
same,mutagenic call,"Test System: AMES SALMONELLA TYPHIMURIUM, Strain/Indicator: TA100, Metabolic Activation: RAT, LIVER, S-9, PCB, Method: PREINCUBATION",inactive; negative
Cn1ccnc1N=O,mutagenic call,[3],active; positive
CC(=O)c1ccc(N=O)cc1,mutagenic call,[4],active; positive
same,mutagenic call,[5],active; positive
same,mutagenic call,[3],active; positive
same,mutagenic call,[6],inactive; negative
O=[N+]([O-])c1cc(-c2ccc(O)c([N+](=O)[O-])c2)ccc1O,mutagenic call,[1],inactive; negative
O[C@@H]1[C@@H]2O[C@@H]2c2c(ccc3ccc4ccccc4c23)[C@H]1O,mutagenic call,"Test System: E. COLI, Strain/Indicator: CL101P, Metabolic Activation: NONE, Method: PREINCUBATION",active; positive
same,mutagenic call,"Test System: E. COLI, Strain/Indicator: CL102P, Metabolic Activation: NONE, Method: PREINCUBATION",active; positive
same,mutagenic call,"Test System: E. COLI, Strain/Indicator: CL103P, Metabolic Activation: NONE, Method: PREINCUBATION",active; positive
same,mutagenic call,"Test System: E. COLI, Strain/Indicator: CL104P, Metabolic Activation: NONE, Method: PREINCUBATION",active; positive
same,mutagenic call,"Test System: E. COLI, Strain/Indicator: CL105P, Metabolic Activation: NONE, Method: PREINCUBATION",active; positive
same,mutagenic call,"Test System: E. COLI, Strain/Indicator: CL106P, Metabolic Activation: NONE, Method: PREINCUBATION",active; positive
C=C(C)C(=O)OCCO,mutagenic call,"Test System: AMES SALMONELLA TYPHIMURIUM, Strain/Indicator: TA97A, Metabolic Activation: NONE, Method: STANDARD PLATE",inactive; negative
same,mutagenic call,[4],inactive; negative
same,mutagenic call,[5],inactive; negative
same,mutagenic call,"Test System: AMES SALMONELLA TYPHIMURIUM, Strain/Indicator: TA98, Metabolic Activation: RAT, LIVER, S-9, SODIUM PHENOBARBITAL, Method: STANDARD PLATE",inactive; negative
same,mutagenic call,[3],inactive; negative
same,mutagenic call,[6],inactive; negative
same,mutagenic call,"Test System: AMES SALMONELLA TYPHIMURIUM, Strain/Indicator: TA100, Metabolic Activation: RAT, LIVER, S-9, SODIUM PHENOBARBITAL, Method: STANDARD PLATE",inactive; negative
same,mutagenic call,"Test System: AMES SALMONELLA TYPHIMURIUM, Strain/Indicator: TA102, Metabolic Activation: NONE, Method: STANDARD PLATE",inactive; negative
same,mutagenic call,"Test System: AMES SALMONELLA TYPHIMURIUM, Strain/Indicator: TA104, Metabolic Activation: NONE, Method: STANDARD PLATE",inactive; negative
same,mutagenic call,"Test System: AMES SALMONELLA TYPHIMURIUM, Strain/Indicator: TA1535, Metabolic Activation: NONE, Method: STANDARD PLATE",inactive; negative
same,mutagenic call,"Test System: AMES SALMONELLA TYPHIMURIUM, Strain/Indicator: TA1535, Metabolic Activation: RAT, LIVER, S-9, AROCLOR 1254, Method: STANDARD PLATE",inactive; negative
same,mutagenic call,"Test System: AMES SALMONELLA TYPHIMURIUM, Strain/Indicator: TA1535, Metabolic Activation: RAT, LIVER, S-9, SODIUM PHENOBARBITAL, Method: STANDARD PLATE",inactive; negative
same,mutagenic call,"Test System: AMES SALMONELLA TYPHIMURIUM, Strain/Indicator: TA1537, Metabolic Activation: NONE, Method: STANDARD PLATE",inactive; negative
same,mutagenic call,"Test System: AMES SALMONELLA TYPHIMURIUM, Strain/Indicator: TA1537, Metabolic Activation: RAT, LIVER, S-9, AROCLOR 1254, Method: STANDARD PLATE",inactive; negative
same,mutagenic call,"Test System: AMES SALMONELLA TYPHIMURIUM, Strain/Indicator: TA1537, Metabolic Activation: RAT, LIVER, S-9, SODIUM PHENOBARBITAL, Method: STANDARD PLATE",inactive; negative
same,mutagenic call,"Test System: AMES SALMONELLA TYPHIMURIUM, Strain/Indicator: TA1538, Metabolic Activation: NONE, Method: STANDARD PLATE",inactive; negative
same,mutagenic call,"Test System: AMES SALMONELLA TYPHIMURIUM, Strain/Indicator: TA1538, Metabolic Activation: RAT, LIVER, S-9, AROCLOR 1254, Method: STANDARD PLATE",inactive; negative
same,mutagenic call,"Test System: AMES SALMONELLA TYPHIMURIUM, Strain/Indicator: TA1538, Metabolic Activation: RAT, LIVER, S-9, SODIUM PHENOBARBITAL, Method: STANDARD PLATE",inactive; negative
same,mutagenic call,"Test System: CHINESE HAMSTER V-79, Strain/Indicator: V79 (HPRT)/6-THIOGUANINE, Metabolic Activation: NONE",inactive; negative
CNc1ccc(N=Nc2ccc(N(C)C(C)=O)cc2)cc1,mutagenic call,"Test System: AMES SALMONELLA TYPHIMURIUM, Strain/Indicator: TA98, Metabolic Activation: RAT, LIVER, S-9, POLYCHLORINATED BIPHENYLS, Method: PREINCUBATION",active; positive
same,mutagenic call,"Test System: AMES SALMONELLA TYPHIMURIUM, Strain/Indicator: TA100, Metabolic Activation: RAT, LIVER, S-9, POLYCHLORINATED BIPHENYLS, Method: PREINCUBATION",active; positive
C/C(C(=O)O)=C(\Cl)C(=O)O,mutagenic call,[1],inactive; negative
same,mutagenic call,[2],inactive; negative
same,mutagenic call,"Test System: AMES SALMONELLA TYPHIMURIUM, Strain/Indicator: TA104, Metabolic Activation: NONE, Method: PREINCUBATION",inactive; negative

# Source: PubChem BioAssay AID1259407 (Chemical Carcinogenesis Research Information System (CCRIS), 2018)
